Results as given in PMC8131325 (The Journal of Biological Chemistry, 2021).
Like-named read-outs stand apart in the source and are kept apart here. Ends that are not written are not given here.

Assays:
FABP3 = target: T1, FABP3 (Homo sapiens, UniProt P05413); assay: Quartz crystal microbalance (QCM) binding assay to immobilized FABP3; settings: for kon / koff: QCM, immobilized His6-FABP3, 50 mM Tris-HCl pH 7.4, room temperature, kobs = koff + kon[αSyn]
T1 construct: made in house; host or cells: E. coli BLR(DE3), pET28a-derived vector (NdeI/XhoI), synthetic gene (Invitrogen GeneArt)
Method: The binding affinities between αSyn and FABP3 were estimated directly using an Affinix QNμ quartz crystal microbalance apparatus operating at room temperature. Samples of His6-FABP3 were affixed to the gold-plated quartz sensor by nickel chelating binding groups as follows. Before binding, the gold sensor was washed with 1% SDS and piranha solution (H2SO4:H2O2 = 3:1). Next, 100 μl of 0.5 mM 3, 3’-dithiobis[N-(5-amino-5-carboxypentyl)propionamide-N’,N’-diacetic acid]dihydrochloride (C₂-NTA, Dojindo) solution was applied and incubated for 10 min at room temperature. This solution was rinsed with Milli-Q water, and 500 μl of Ni+ solution (20 mM Hepes-NaOH buffer, pH 7.5, containing 150 mM NaCl,50 mM EDTA, and 10 mM NiSO4) was added. After a 10 min incubation, the sensor was washed again with Milli-Q, then a 0.1 μM sample of His6-FABP3 in 50 mM Tris-HCl buffer, pH 7.4 was applied. The signal from the quartz sensor was then monitored over a 1 s interval with gentle stirring. To initiate the data sampling run, samples of αSyn with varying concentrations were then applied to the sensor. After each experimental run, the bound His6-FABP3 was removed by the application of 500 μl imidazole solution (0.4 M imidazole/20 mM Hepes pH 7.5/150 mM NaCl) for 30 min, followed by a Milli-Q rinse, and reattachment of Ni-ion and fresh His6-FABP3 to reset the sensor to its original state. Analysis of the raw traces to obtain quantitative affinity values were performed using the software package (AQUA 2.0) provided by the manufacturer, according to the following linear relationship between the observed rate constant kobs and the concentration of αSyn; kobs = koff + kon[αSyn]. Estimated kon and koff values were then used to determine the Kd.

FABP3 F16S = target: T2, FABP3 F16S (Homo sapiens, UniProt P05413, F17S); assay: QCM binding assay to immobilized FABP3 F16S mutant
T2 construct: made in house
Method: The binding affinities between αSyn and FABP3 were estimated directly using an Affinix QNμ quartz crystal microbalance apparatus operating at room temperature. Samples of His6-FABP3 were affixed to the gold-plated quartz sensor by nickel chelating binding groups as follows. Before binding, the gold sensor was washed with 1% SDS and piranha solution (H2SO4:H2O2 = 3:1). Next, 100 μl of 0.5 mM 3, 3’-dithiobis[N-(5-amino-5-carboxypentyl)propionamide-N’,N’-diacetic acid]dihydrochloride (C₂-NTA, Dojindo) solution was applied and incubated for 10 min at room temperature. This solution was rinsed with Milli-Q water, and 500 μl of Ni+ solution (20 mM Hepes-NaOH buffer, pH 7.5, containing 150 mM NaCl,[…] 10 mM NiSO4) was added. After a 10 min incubation, the sensor was washed again with Milli-Q, then a 0.1 μM sample of His6-FABP3 in 50 mM Tris-HCl buffer, pH 7.4 was applied. The signal from the quartz sensor was then monitored over a 1 s interval with gentle stirring. To initiate the data sampling run, samples of αSyn with varying concentrations were then applied to the sensor. After each experimental run, the bound His6-FABP3 was removed by the application of 500 μl imidazole solution (0.4 M imidazole/20 mM Hepes pH 7.5/150 mM NaCl) for 30 min, followed by a Milli-Q rinse, and reattachment of Ni-ion and fresh His6-FABP3 to reset the sensor to its original state. Analysis of the raw traces to obtain quantitative affinity values were performed using the software package (AQUA 2.0) provided by the manufacturer, according to the following linear relationship between the observed rate constant kobs and the concentration of αSyn; kobs = koff + kon[αSyn]. Estimated kon and koff values were then used to determine the Kd.

αSyn = assay: Thio-T fluorescence assay of αSyn fibril formation with added protein; assay type: biochemical, Human; settings: αSyn 69 μM, 50 mM Tris-HCl pH 7.4, 150 mM NaCl, 37 °C, agitation
Method: The formation of αSyn fibrils were detected in fluorescence assays using Thio-T. Samples (1 mg/ml; 69 μM) of either WT or mutant αSyn were incubated in Thio-T assay buffer (50 mM Tris-HCl, pH 7.4, containing 150 mM NaCl and 20 μM Thio-T) with or without additional FABP3 and/or αSyn-derived oligopeptides. One hundred 50 μl aliquots were incubated in 96-well plates (8 × 12-well plate; Greiner) at 37 °C using an ARVOX4 (PerkinElmer) fluorescent plate reader with continuous agitation. The fluorescence signal of the samples (Ex: 440 nm, Em: 486 nm) were measured at 15 min intervals. In experiments where the effects of delayed FABP3 addition were probed (Fig. 1C), an equimolar concentration of FABP3 was added to the respective wells after an initial agitation regimen of 3, 8, or 24 h. Data shown are the average of data from three 150 μl samples, and error bars indicate standard errors of the mean.

N2a cells = assay: Cell viability by Tali Image-Based Cytometer (Calcein-AM/ethidium homodimer); design: species or system Mouse; settings: protein co-expressed with FABP3 in N2a cells, 30 μM 6-OHDA 24 h
Method: Cell viability measurements using a Tali Image-Based Cytometer (Thermo Fisher Scientific) were performed according to previous methods ([59]). After 24 h incubation, media was changed to 0% FBS+MEM containing 30 μM 6-hydroxydopamine and incubated for 24 h. Statistical comparisons were performed by Welch’s t test.

[1] = Dynamic light scattering of fibril-forming samples; assay type: physicochemical; settings: DLS, 25 °C
Method: Dynamic light scattering measurements were performed on an Otsuka Electronics FDLS-3000 monitor with a laser wavelength of 532 nm at an observation angle of 90°. Sample protein concentrations were adjusted to 0.3 mg/ml, and a sample volume of 2 ml was used for measurements. Samples were filtered before measurement.

T1 sequence (P05413 whole entry): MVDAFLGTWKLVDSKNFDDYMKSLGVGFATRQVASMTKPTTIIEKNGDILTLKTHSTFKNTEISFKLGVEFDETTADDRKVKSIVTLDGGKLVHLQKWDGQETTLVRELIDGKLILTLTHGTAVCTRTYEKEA
T2 sequence (P05413 whole entry F17S): as the sequence (P05413 whole entry) above, with F17S counted along it

| Molecule | kon (FABP3) | koff (FABP3; read-out: koff) [s⁻¹] | other results |
| --- | --- | --- | --- |
| CCCCC/C=C\C/C=C\C/C=C\C/C=C\CCCC(=O)O [arachidonic acid, reference compound] | 0.8 × 10^5 M^−1・s^−1 | 0.0006 | Kd (FABP3): 6.8 nM; Kd (FABP3 F16S): 2090 nM; koff (FABP3 F16S): 0.0047 s⁻¹; kon (FABP3 F16S): 0.02 × 10^5 M^−1・s^−1 |
| EEGFQDFEPEA [αSynP130-140 Y133F/Y136F] | 5.4 × 10^5 M^−1・s^−1 | 0.0011 | – |
| EEGFQDWEPEA [αSynP130-140 Y133F/Y136W] | 3.2 × 10^5 M^−1・s^−1 | 0.0019 | Kd (FABP3): 6.1 nM |
| EEGFQDYEPEA [αSynP130-140Y133F] | 7.5 × 10^5 M^−1・s^−1 | 0.0015 | – |
| EEGWQDWEPEA [αSynP130-140Y133W/Y136W] | 2.4 × 10^5 M^−1・s^−1 | 0.0015 | – |
| EEGYQDFEPEA [αSynP130-140Y136F] | 4.8 × 10^5 M^−1・s^−1 | 0.0037 | – |
| EEGYQDWEPEA [αSynP130-140Y136W] | 3.8 × 10^5 M^−1・s^−1 | 0.0024 | – |
| EEGYQDYEPEA [αSynP130-140] | 2.0 × 10^5 M^−1・s^−1 | 0.0012 | Kd (FABP3): 6.1 nM |
| bovine serum albumin | – | – | effect of added protein on αSyn fibril formation (αSyn): no significant suppressive effects in fibrillation of αSyn |
| lysozyme | – | – | effect of added protein on αSyn fibril formation (αSyn): no significant suppressive effects in fibrillation of αSyn |
| α-synuclein [αSyn] | 6.4 × 10^5 M^−1・s^−1 | – | Kd (FABP3; QCM (Affinix QNμ), His6-FABP3 immobilized via Ni-NTA on gold sensor, 50 mM Tris-HCl pH 7.4, room temperature, Kd determined from estimated kon and koff): 7.2 nM; koff (FABP3): 0.0046 s⁻¹; binding to FABP3 F16S (in words) (FABP3 F16S): unable to bind; Alive cells (N2a cells): 77%; Dead cells (N2a cells): 0%; Dying cells (co-stained with Calcein-AM and EthD-1) (N2a cells; control 12%): 23%; average particle size ([1]; αSyn alone, absence of FABP3, after 1200 min incubation): 6 μm; average particle size ([1]; αSyn in the presence of FABP3, after 1200 min incubation): 0.63 μm |
